A short description of data set [1]: Trypan blue exclusion viability assay, normal fibroblast cell lines. The format is cell-based. To be noted: mouse (NIH3T3), human (HFL), NIH3T3 and HFL cells (normal fibroblast cell lines), 2.5 and 5.0 μM, read-out: percent viability. Here is the method:
(§1) The effect of FR-20 on the growth of normal and tumor cells of breast and prostate was examine utilizing nine cell lines: NIH/3T3 and HFL (normal fibroblast cell lines); MCF-7 and 361 ([…] breast tumor cell lines); BT-20, 435 and SKBR-3 ([…] breast tumor cell lines); LnCaP (androgen sensitive prostate tumor cell line); PC-3 and DU-145 (androgen insensitive prostate tumor cell line).
(§2) The cells were grown as in Example 22, A. FR-20 was dissolved in DMSO and added to the cells at 2.5 μM and 5.0 μM concentration. To control cells, DMSO was added equivalent to the volume of solvent (DMSO) present at the highest concentration of the compound. The activity of the compound was evaluated after 48 hours by Trypan blue exclusion. […] Nearly 50% of SKBR-3 and BT-20 cells were dead at 2.5 μM and 75% at 5.0 μM concentration of the compound. […] FRI-20 had profound effect on the viability of androgen-dependent LnCaP prostate tumor cell line when compared to androgen-independent DU-145 and PC-3 prostate cell lines. At […] FRI-20, 80% of LnCaP, 40% of PC-3 and 20% of DU-145 cells were killed. At […] FRI-20, 72% of LnCaP, 47% of PC-3 and 40% of DU-145 were killed (FIG. 3B).

In the next data set the test system is LnCaP cells. The experiment in a line: Comparison with cisplatin, Trypan blue viability after 72 hours. The format is cell-based. Here is the method: (§3) The killing effect of FR-20 on androgen-sensitive (LnCaP) and androgen insensitive (DU145) prostate tumor cells was compared to the effect of cisplatin (cis-diamminedichloroplatinum II), a widely used anti-prostate cancer agent. The cells were grown as in Example 26. FRI-20 or cisplatin was dissolved in DMSO and added to the cells at various concentrations. Viability was determined after 72 hours by the Trypan blue exclusion method. The concentration of FRI-20 required to completely kill LnCaP and DU145 cells was 2.5 μM and 5.0 μM, respectively. Under identical conditions, complete killing of LnCaP and DU145 cells by cisplatin required 25 μM and 15 μM concentrations, respectively.

The test system of the next data set is DU145 cells. Described as above. Format: cell-based. Particulars: DU145, 72 hours, Trypan blue exclusion. Here is the method:
as §3

The next data set deals with U87. Description: GI50 growth inhibition, trypan blue cell count. Format: cell-based, human. To be noted: Homo sapiens, U-87 MG; glioblastoma; 96 hours after addition. Here is the method: (§4) The human carcinoma cell lines listed in Table 5 below were purchased from ATCC and grown in an appropriate growth medium containing 10% fetal bovine serum (FBS) and antibiotics. The cells were plated at a cell density of 1.0×10^5 cells per […] in 6-well dishes. The cells were treated with various concentrations of (E)-fluorostyryl-4-bromobenzylsulfone 24 hours after plating in a total volume of 1 ml of medium using dimethylsulfoxide (DMSO) as a solvent for the compound. Control cells were treated with DMSO alone. The total number of viable cells was determined 96 hours after the addition of the compound by counting the cells in each well using a hemacytometer after trypan blue staining (viable cells exclude the stain). The counts were done in duplicate and the average was graphed in FIG. 8 as a percentage of the non-treated control group.

In the next data set the test system is DLD-1. Description: GI50 growth inhibition, trypan blue cell count. Format: cell-based, human. Particulars: Homo sapiens, DLD-1; cob-rectal; 96 hours after addition. Here is the method:
as §4

The subject of the next data set is H157. Description: GI50 growth inhibition, trypan blue cell count. The format is cell-based, human. To be noted: Homo sapiens, NCI-H157; lung, non-small cell; 96 hours after addition. Here is the method: as §4
The subject of the next data set is MIA-PaCa-2. Description: GI50 growth inhibition, trypan blue cell count. Format: cell-based, human. To be noted: Homo sapiens, MIA PaCa-2; pancreatic; 96 hours after addition. Here is the method:
as §4

For another data set, the target named is T1, ERK-2 (Homo sapiens, UniProt P28482).
T1 construct: ERK-2 in 100 mg of cell lysate was immunoprecipitated; endogenous in cells; host or cells: LnCaP, MCF-7 (human) and NIH3T3 (mouse) cells
T1 sequence (P28482 2-360): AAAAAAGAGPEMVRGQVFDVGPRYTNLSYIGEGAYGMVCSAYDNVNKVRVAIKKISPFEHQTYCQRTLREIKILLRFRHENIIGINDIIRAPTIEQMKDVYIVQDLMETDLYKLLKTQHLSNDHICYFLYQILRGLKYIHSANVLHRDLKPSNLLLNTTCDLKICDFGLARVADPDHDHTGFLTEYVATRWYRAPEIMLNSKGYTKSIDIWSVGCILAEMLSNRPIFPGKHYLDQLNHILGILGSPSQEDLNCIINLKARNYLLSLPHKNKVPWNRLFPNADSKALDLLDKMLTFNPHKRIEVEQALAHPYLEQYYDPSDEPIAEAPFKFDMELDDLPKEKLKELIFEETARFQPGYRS
Description: Immune complex ERK-2 kinase assay with MBP substrate, treated cells. Particulars: prostate tumor cells. The arrangement: dose or concentration left out as unconfirmed. Format: cell-based. Here is the method: To examine the effects of FRI-20 on the MAPK pathway, NIH3T3, LnCaP and MCF-7 cells were incubated with FRI-20 at a concentration […] for 48 hours. Following incubation of cells in the presence and absence of FRI-20, the cells were lysed using ERK lysis buffer containing 20 mM HEPES (pH 7.4), 50 mM β-glycerophosphate, 0.5% Triton X-100, 2 mM MgCl2, 1 mM EGTA, 1 mM dithiothreitol, 2 μg/ml leupeptin, 2 μg/ml aprotinin, 100 μM phenylmethylsulfonyl fluoride, and 1 mM benzamidine. ERK-2 in […] of cell lysate was immunoprecipitated by incubating lysate protein with […] of ERK-2 polyclonal antibody (antibody sc-154 to ERK2 is from Santa Cruz Biotechnology, Inc.) for one hour followed by an additional incubation of 20 μl of protein A-Sepharose (Pharmacia) for one hour. The immune complex-bound protein A-Sepharose beads were washed twice with lysis buffer and twice with
ERK/MAPK buffer containing 20 mM HEPES (pH 7.4), 50 mM β-glycerophosphate, 10 mM MgCl2, 1 mM EGTA, 1 mM dithiothreitol, and […] Na3VO4.
The immunoprecipitates were then tested for MAP kinase activity by an in vitro assay which utilizes myelin basic proteins (MBP) as a substrate for ERK-2 in the presence of [γ-^32P] ATP. Accordingly, the beads were resuspended in 40 μl of MAPK buffer containing 100 μM [γ-^32P] […]

Data set [2] deals with 361 breast tumor cell line. The experiment in a line: Trypan blue exclusion viability assay, breast tumor cell line. The format is cell-based. Particulars: 2.5 and 5.0 μM, 48 hours. Here is the method: as §1, §2
A further data set concerns SK-MEL-28. Description: GI50 growth inhibition, trypan blue cell count. The format is cell-based. Particulars: Homo sapiens, melanoma, 96 hours after addition. Here is the method:
as §4

A further data set deals with SKBR-3 and BT-20 cells. The experiment in a line: Trypan blue exclusion viability assay, breast tumor cell lines. Format: cell-based. Particulars: 48 hours. Here is the method: as §1, §2
Data set [3] concerns MCF-7, HTB126, T470 and 435 cells. Described as above. The format is cell-based. Particulars: 48 hours. Here is the method: as §1, §2

One may read the viability as a per cent measure of how many cells are alive, often set against a control. Broadly, the GI50 is the concentration that inhibits growth by half. For the compound `O=S(=O)(/C=C/c1ccc(F)cc1)Cc1ccc(Cl)cc1` [Example 11, E-4-fluorostyryl 4-chlorobenzyl Sulfone], in [1], the viability at 48 h was 85 to 90%. Besides, the “concentration required to completely kill cells” value with LnCaP cells (LnCaP, 72 hours, Trypan blue exclusion) worked out at 2.5 µM; with DU145 cells, 5.0 µM. Moreover, in the data set with LnCaP cells (both LnCaP and DU145, 72 hours), the “activity relative to cisplatin in killing prostate tumor cells” value was “at least tenfold more active than cisplatin”. The GI50 with U87 turned out to be 2 µM; in the data set on DLD-1 it was 1 µM; in the data set on H157, 1.5 µM; in the data set on MIA-PaCa-2, 0.5 µM; in the data set with SK-MEL-28 it was 2 µM. In addition, the “reduction of phosphorylation status of MBP compared to mock-treated cells” value at ERK-2 is listed as “more than 80%”. Besides, the viable cells in data set [2] was 50-75%. Moreover, the dead cells in the data set with SKBR-3 and BT-20 cells (2.5 µM) is about 50%; in the data set on SKBR-3 and BT-20 cells (5.0 µM), 75%. For the same compound, the viability at 2.5 µM in data set [3] (2.5 µM) is under 25%. Moreover, the viability at 5 µM in data set [3] (5.0 µM) was under 10%.

These data come from US6548553B2, “Styryl sulfone anticancer agents” (Temple University-of the Commonwealth System of Higher …, priority 1997, dated 2003).
